Source: patent US11976075B2, “Inhibitors of the MYST family of lysine acetyl transferases” (Isosterix, Inc., priority 2022, dated 2024)
Read-outs that look alike come from different tables or passages of the source.

Biological target: T1, Recombinant KAT6A/MOZ (488-778) protein (Homo sapiens, UniProt Q92794)
T1 construct: Recombinant KAT6A/MOZ (488-778) protein (Active motif, Catalog #81223); purchased Active Motif 81223
Assay: Kat6a AlphaLISA Inhibition Screening Assay
Assay type: biochemical
Method: The Kat6a inhibitory activity of test compounds was determined using an Alpha Screen-based detection method. The assay reactions were conducted in a volume of 10 μL in Alpha Plate, White 384 well plate (cat #6008280, Perkin Elmer). The enzymatic reactions were performed in assay buffer pH 8.0 (50 mM Tris-HCl, 0.1 mM EDTA, 0.01% Tween-20, 1 mM Dithiothreitol, 0.1% BSA (fatty acid free) and 330 nM TSA (Trichostatin A)). 10 μL reaction volume consisting of 25 nM of Recombinant KAT6A/MOZ (488-778) protein (Active motif, Catalog #81223), 400 nM Acetyl coenzyme A (Catalog #A2056, Sigma), 200 nM of Histone H3 peptide [(amino acids 1-21), biotin-labeled (BPS Biosciences, Catalog #52011,)] and a 10-point dose response curve for test/tool compounds were prepared. Enzyme and compounds solution were pre-incubated in assay plate for 60 or 10 min at room temperature then substrate and Acetyl coenzyme A solution were added to the plate. After addition, the plate was sealed with adhesive seals and incubated for 120 minutes at room temperature.
After 120 minutes of incubation, 5 μL (10 μg/mL) of AlphaLISA anti-acetyl-Lysine acceptor beads (Perkin Elmer, Catalog #AL143C) were added to the plate and it was incubated for 60 minutes at room temperature. Then 10 μL (10 μg/mL) of Alpha Streptavidin donor beads (Perkin Elmer, Catalog #6760002S) were added to the plate which was further incubated for 60 minutes at room temperature. After incubation, the alpha signal was recorded by using Perkin Elmer Envision multi-mode reader.
NA means the compound was not active at the concentration tested. […] NT means not tested.

[1] = 60′ pre-incubation, Table 3, read-out: Kat6A Biochemical assay: IC50
[2] = 60′ pre-incubation, Table 2, read-out: Kat6A biochemical assay: IC50

T1 sequence (Q92794 488-778): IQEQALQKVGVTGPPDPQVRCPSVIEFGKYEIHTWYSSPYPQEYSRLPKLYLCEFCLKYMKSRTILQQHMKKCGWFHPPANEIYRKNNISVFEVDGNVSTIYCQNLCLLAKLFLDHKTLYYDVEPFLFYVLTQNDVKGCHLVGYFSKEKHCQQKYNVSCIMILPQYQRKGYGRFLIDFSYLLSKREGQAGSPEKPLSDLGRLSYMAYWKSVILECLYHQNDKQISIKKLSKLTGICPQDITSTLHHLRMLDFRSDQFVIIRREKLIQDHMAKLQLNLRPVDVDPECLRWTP

Compound | IC50 [1] [µM] | IC50 [2] [µM] | further results
COc1cc(Cn2cccn2)cc2nnc(NS(=O)(=O)CC3CCCCC3)n12 [compound 127, N-(7-((1H-pyrazol-1-yl)methyl)-5-methoxy-[1,2,4]triazolo[4,3-a]pyridin-3-yl)-1-cyclohexylmethanesulfonamide] | – | – | IC50 (10′ pre-incubation, Table 3, read-out: Kat6A Biochemical assay: IC50): ≤ 10 µM
CCC(=O)NCc1ccn(Cc2cc(OC)c3c(NS(=O)(=O)CC4CCCCC4)noc3c2)n1 [Synthetic Example 9, N-((1-((3-((cyclohexylmethyl)sulfonamido)-4-methoxybenzo[d]isoxazol-6-yl)methyl)-1H-pyrazol-3-yl)methyl)propionamide] | – | – | IC50 (10′ pre-incubation, Table 2, read-out: Kat6A biochemical assay: IC50): ≤ 10 µM
C=CC(=O)NCc1cnn(Cc2cc(OC)c3c(NS(=O)(=O)CC4CCCCC4)noc3c2)c1 [Synthetic Example 4, N-((1-((3-((cyclohexylmethyl)sulfonamido)-4-methoxybenzo[d]isoxazol-6-yl)methyl)-1H-pyrazol-4-yl)methyl)acrylamide] | – | ≤ 10 | –
COc1ccccc1S(=O)(=O)Nc1noc2cc(Cn3cc(C(=O)NCC#N)cn3)cc(OC)c12 [Synthetic Example 62, N-(cyanomethyl)-1-((4-methoxy-3-((2-methoxyphenyl)sulfonamido)benzo[d]isoxazol-6-yl)methyl)-1H-pyrazole-4-carboxamide] | – | ≤ 10 | –
COc1ccccc1S(=O)(=O)Nc1noc2cc(Cn3cc(CNC(=O)C#CCO)cn3)cc(OC)c12 [Synthetic Example 53, 4-hydroxy-N-((1-((4-methoxy-3-((2-methoxyphenyl)sulfonamido)benzo[d]isoxazol-6-yl)methyl)-1H-pyrazol-4-yl)methyl) but-2-ynamide] | – | ≤ 10 | –
COc1ccccc1S(=O)(=O)Nc1noc2cc(Cn3cc(CNS(=O)(=O)c4cc(F)c(F)c(F)c4)cn3)cc(OC)c12 [compound 80, 3,4,5-trifluoro-N-((1-((4-methoxy-3-((2-methoxyphenyl)sulfonamido)benzo[d]isozolol-6-yl)methyl)-1H-pyrazol-4-yl)methyl) benzenesulfonamide] | ≤ 10 | – | –
COC/C=C/C(=O)NCc1cnn(Cc2cc(OC)c3c(NS(=O)(=O)c4ccccc4OC)noc3c2)c1 [Synthetic Example 54, (E)-4-methoxy-N-((1-((4-methoxy-3-((2-methoxyphenyl)sulfonamido)benzo[d]isoxazol-6-yl)methyl)-1H-pyrazol-4-yl)methyl)but-2-enamide] | – | ≤ 10 | –

More lines, main results first:

IC50 [1] [µM] | IC50 [2] [µM] | Compound | further results
≤ 10 | – | COc1cccc(OC)c1S(=O)(=O)Nc1noc2cc(-c3cccc(N4CCN(C(=O)CCl)CC4)c3)cc(OC)c12 [compound 73, N-(6-(3-(4-(2-chloroacetyl)piperazin-1-yl)phenyl)-4-methoxybenzo[d]isoxazol-3-yl)-2,6-dimethoxybenzenesulfonamide] | –
– | > 10 | COc1ccccc1S(=O)(=O)Nc1noc2cc(CN3CCC(C(=O)NCC#N)CC3)cc(OC)c12 [Synthetic Example 63, N-(cyanomethyl)-1-((4-methoxy-3-((2-methoxyphenyl)sulfonamido)benzo[d]isoxazol-6-yl)methyl)piperidine-4-carboxamide] | –
≤ 10 | – | COc1ccccc1S(=O)(=O)Nc1noc2cc(Cn3cc(CNS(=O)(=O)c4ccccc4)cn3)cc(OC)c12 [compound 79, 2-methoxy-N-(4-methoxy-6-((4-(phenylsulfonamidomethyl)-1H-pyrazol-1-yl)methyl)benzo[d]isoxazol-3-yl)benzenesulfonamide] | –
≤ 10 | – | C#CC(=O)N1CCN(c2ccnc(-c3cc(OC)c4c(NS(=O)(=O)c5c(OC)cccc5OC)noc4c3)c2)CC1 [compound 119, 2,6-dimethoxy-N-(4-methoxy-6-(4-(4-propioloylpiperazin-1-yl)pyridin-2-yl)benzo[d]isoxazol-3-yl)benzenesulfonamide] | –
≤ 10 | – | COc1ccccc1S(=O)(=O)Nc1noc2cc(Cn3cc(CNS(=O)(=O)c4ccc(Cl)nc4)cn3)cc(OC)c12 [compound 83, 6-chloro-N-((1-((4-methoxy-3-((2-methoxyphenyl)sulfonamido)benzo[d]isoxazol-6-yl)methyl)-1H-pyrazol-4-yl)methyl)pyridine-3-sulfonamide] | –
